Marks after values point to notes of the source that are not given here.
Experiments:
[1] = Fatty acids in cecum of piglets (Example 4); assay type: in vivo, PIC genetics
Procedure: (§1) Composition of Example 4 was tested in piglets to evaluate their performance ratio in comparison with growth promoter antibiotic (GPA) and with sodium butyrate. All were added to the rations of the respective treatments as growth promoting additives.
(§2) Sixty-three piglets were weaned at 22 days of age, with a start average body weight of 5.48 kg, both sexes, PIC genetics. The animals were separated by sex and distributed into 3 treatments, with 7 replicates of 3 animals each, during the whole period (22 to 64 days of age). Diet was formulated without Zinc Oxide or any other antimicrobial.
(§3) T1: Basal Diet+GPA (colistin 8%—40 ppm)
(§4) T2: Basal Diet+Sodium Butyrate 30% (1 kg/t)
(§5) T3: Basal Diet+Composition of the Invention of Example 4 (2 kg/t)

[2] = Piglet performance with growth promoting additives (Example 4); assay type: in vivo, PIC genetics; conditions: piglets 22 to 64 days of age
Procedure: as §1, §2, §3, §4, §5

[3] = test system: sulfite-reducing Clostridium; assay: Sulfite-reducing Clostridium CFU count in cecum fecal material of challenged chickens (Examples 8, 9, 10); assay type: in vivo; conditions: cecum fecal material at 28 days; colony forming units
Excerpt: Compositions of examples 8, 9 and 10 were used as growth promoting additives for growing chicken feeds, i.e., during the first 28 days of life, to evaluate the control of Salmonella heidelbergii. On the fourth day of life, 20% of the birds were inoculated with Salmonella heidelbergii. At the end of the 28 days, fecal material was collected from the cecum of the birds and the counting of colony forming units (CFUs) of Salmonella and sulfite-reducing Clostridium.
The treatments were as follows:
T1: Basal Diet+SH Challenge—WITHOUT GPA (growth promoting antibiotic)
T2: Basic Diet+SH+APC Challenge (Enramicima 8 ppm)
T3: Basal Diet+SH Challenge+Sodium Butyrate (1.5 kg/t of feed)
T4: Basal Diet+Composition of the Invention of Example 8—3 kg/t
T5: Basal Diet+Composition of the Invention of Example 9—3 kg/t
T6: Basal Diet+Composition of the Invention of Example 10—3 kg/t
T7: Basal Diet+Composition of the Invention of Example 9—3 kg/t+Probiotic

[4] = Diarrhea index in piglets (Example 4); assay type: in vivo, PIC genetics
Procedure: as §1, §2, §3, §4, §5

[5] = Growth promoter additives in commercial broiler chicken diets (Examples 2 and 3 vs Zinc Bacitracin); assay type: in vivo, commercial broiler chickens
Procedure: (§6) Formulations of examples 2 and 3 were administered to commercial broiler chickens, with an inclusion of 2 kg per ton of feed. The results are shown in Tables 12 (Diets with Zinc Bacitracin Antibiotic, As Growth Promoter Additives), 13 (Diets with the Composition of Example 2, as Growth Promoter Additives) and 14 (Diets with the Composition of Example 3, As Growth Promoter Additive) below.
(§7) Note: (*)—Salmonella Control Efficiency Index, measured by conducting a ‘propé’ [shoe covers] drag swab tests. Antibiotic=100 (**)—Zinc Bacitracin

[6] = test system: Salmonella; assay: Salmonella Control Efficiency Index by 'propé' drag swab tests, commercial broiler chickens; assay type: in vivo; conditions: Antibiotic=100
Procedure: as §6, §7

## CCCC(=O)[O-].[Na+] [Sodium Butyrate]
[1]
  Fatty acids in Cecum: Acetic: 0.38
  Fatty acids in Cecum: Butyric: 0.18
  Fatty acids in Cecum: Propionic: 0.32^a
  Fatty acids in Cecum: Total: 0.87
[2]
  CA = feed conversion: 2.07
[3]
  Sulfite-reducing Clostridium: 4959
[4]; Grade I
  Diarrhea index: 22^b
[4]; Grade II
  Diarrhea index: 33^ab
[4]; Grade III
  Diarrhea index: 53^b

## Zinc Bacitracin
[5]; Average of Productions 1-4
  Feed Conversion: 1.69
  Final Average Body Weight: 3.11 kgBW/bird
  Food Intake: 5.159 kg/Bird
[5]; Production 1
  Feed Conversion: 1.72
  Final Average Body Weight: 3.14 kgBW/bird
  Food Intake: 5.329 kg/Bird
[5]; Production 2
  Feed Conversion: 1.71
  Final Average Body Weight: 3.07 kgBW/bird
  Food Intake: 5.167 kg/Bird
[5]; Production 3
  Feed Conversion: 1.60
  Final Average Body Weight: 3.20 kgBW/bird
  Food Intake: 5.034 kg/Bird
[5]; Production 4
  Feed Conversion: 1.72
  Final Average Body Weight: 3.01 kgBW/bird
  Food Intake: 5.105 kg/Bird
[6]; Average of Productions 1-4
  Control of Salmonella (Salmonella Control Efficiency Index): 100
[6]; Production 1
  Control of Salmonella (Salmonella Control Efficiency Index): 100
[6]; Production 2
  Control of Salmonella (Salmonella Control Efficiency Index): 100
[6]; Production 3
  Control of Salmonella (Salmonella Control Efficiency Index): 100
[6]; Production 4
  Control of Salmonella (Salmonella Control Efficiency Index): 100

Reference: US10973245B2, “Immunomodulatory and growth promoting and controlling composition of intestinal microbiota undesirable bacteria and its use” (YESSINERGY HOLDING S/A, priority 2016, dated 2021)
